Like-named read-outs stand apart in the source and are kept apart here.
What was measured:
[1] = cited from earlier work
[2] = Acetaminophen pharmacokinetics after 1 g intravenous infusion (serum LC-MS/MS, noncompartmental analysis); format: in vivo, human
Protocol: Serum samples were collected every 30 min starting from the administration until 6 h after the treatment was initiated and immediately frozen at −80 °C until analysis. […] The protocol also included the collection of whole blood samples for genetic analyses.
The samples were mixed for 15 s and kept on ice for 20 min. Then, the samples were centrifuged for 10 min at 3000× g, at 4 °C. The supernatant (750 μL) was evaporated under a nitrogen stream. Then, the samples were resuspended in 40 μL of a mixture containing water ([…]), methanol (2.5%), and formic acid (0.1%). […] The column temperature was set at 20 °C. The flow rate was 0.2 mL/min, and the mobile phase consisted of the following gradient: Mobile phase A: 0.1% formic acid in water; Mobile phase B: 0.1 formic acid in methanol. The elution was started with a proportion of 97.5% A:2.5% B. A linear gradient increase from 2.5% to 65%B over 0.6 min was used, and then, the mobile phase reversed to initial conditions. The mass spectrometer was operated in positive electrospray ionization using multiple reaction monitoring (MRM). The source was set at 500 °C and 5.5 kV. […] Pharmacokinetic analyses were carried out by use of WinNonlin® V5.3 (Pharsight Corporation, St. Louis, MO, USA). The pharmacokinetic model chosen to calculate all parameters was noncompartmental with intravenous infusion. Untransformed data were used for all analyses.

[3] = Adverse drug events attributable to acetaminophen in the study participants; format: in vivo, human; details: single 1 g iv dose, ICU patients
[4] = UGT1A6*2/*2 diplotype vs UGT1A6*1/*1
[5] = UGT1A6*2/*4 diplotype vs UGT1A6*1/*1
[6] = concomitant drug therapy: Other (Inhibitors + Inducers) (n = 1), single patient, 1 g iv
[7] = human, serum, concomitant drug therapy: Other (Inhibitors + Inducers) (n = 1), single patient, 1 g iv

CC(=O)Nc1ccc(O)cc1 [Acetaminophen]
fraction of acetaminophen metabolized in vivo [1]: about 90%
acetaminophen glucuronides as share of the metabolites recovered in urine ([1]; urine): about half
acetaminophen glucuronides as share of the urine metabolites ([1]; urine): more than 50%
effect of UGT1A9 genotypes (UGT1A9*1/*3, *3/*3) on pharmacokinetics ([2]; 65 individuals without UGT1A6 variants, Supplementary Table S5): No major differences
pharmacokinetics in individuals who required on-demand opiates vs those who did not ([2]; Supplementary Table S6): No significant differences
increase in drug exposure (AUMC) [2, 4]: 66%
increase in t1/2 values [2, 4]: 38%
increase in drug exposure (AUMC) [2, 5]: 76%
increase in t1/2 values [2, 5]: 31%
K10 [2, 6]: 0.45; - 1/h
V (volume of distribution) [2, 6]: 299.16; - mg/(ug/mL)
Vss [2, 6]: 299.16; - mg/(ug/mL)
increase in t1/2 values ([2]; homozygous or double heterozygous for variant UGT1A6 alleles vs UGT1A6*1/*1): 22.5%
half-life ([2]; human, serum, intravenous, 1 g, whole study group, from less than 0.5 h up to more than 3.5 h, read-out: half-life (t1/2) values, range across individuals): 0.5 to 3.5 h
AUC(0-inf) [2, 7]: 7440 ng·h/mL
AUC(0-t) [2, 7]: 6660 ng·h/mL
C0 [2, 7]: 3340 ng/mL
MRT [2, 7]: 2.23 h
half-life ([2]; human, serum, concomitant drug therapy: Other (Inhibitors + Inducers) (n = 1), single patient, 1 g iv, read-out: t1/2 (converted)): 1.54 h
adverse drug events attributable to acetaminophen [3]: None of the participants developed adverse drug events
